From the supplement of paper PMC11061612

Legend:
Assay in all cases: combination Emax (second highest fraction inhibited in the dose matrix, 72 h); higher = more inhibition; extreme values may be limits of the assay
[1] = system: EJM (Plasma Cell Myeloma)
Procedure, shortened: (§1)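 Bliss excess equals the observed combination effect minus the expected value EA + EB − EA·EB, where EA and EB are the effects of each agent alone. Combination Emax is the second-highest inhibition within the matrix. Inhibition was scaled from CellTiter-Glo 2.0 luminescence, with 0 set by vehicle wells and 1 by blank wells, after 72 hours of two-drug dosing of cells plated in 1536-well plates.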

[2] = system: NCI-H650 (Lung Adenocarcinoma)
Procedure, shortened: as §1

[3] = system: SK-LU-1 (Lung Adenocarcinoma)
Procedure, shortened: as §1

[4] = system: NCI-H1993 (Lung Adenocarcinoma)
Procedure, shortened: as §1

| Compound | combination Emax [1] | combination Emax [2] | combination Emax [3] | combination Emax [4] |
| --- | --- | --- | --- | --- |
| CN(C)CCCOc1ccc(-c2ccc3ncc4c(c3c2)n(C2CCOCC2)c(=O)n4C)cn1 [AZD0156] + C=CCn1c(=O)c2cnc(Nc3ccc(N4CCN(C)CC4)cc3)nc2n1-c1cccc(C(C)(C)O)n1 [AZD1775] (first compound max 1 µM, partner max 1 µM) | 0.858 | 0.263 | 0.384 | 0.586 |
| CN(C)CCCOc1ccc(-c2ccc3ncc4c(c3c2)n(C2CCOCC2)c(=O)n4C)cn1 [AZD0156] + CCN(CCO)CCCOc1ccc2c(Nc3cc(CC(=O)Nc4cccc(F)c4)[nH]n3)ncnc2c1 [AZD2811] (first compound max 1 µM, 7x7, partner max 1 µM) | 0.0982 | 0.124 | 0.143 | 0.288 |
| CN(C)CCCOc1ccc(-c2ccc3ncc4c(c3c2)n(C2CCOCC2)c(=O)n4C)cn1 [AZD0156] + C[C@@H]1COCCN1C2=NC(=NC(=C2)C3(CC3)[S@](=N)(=O)C)C4=C5C=CNC5=NC=C4 [AZD6738] (first compound max 1 µM, 7x7, partner max 10 µM) | 0.894 | 0.226 | 0.474 | 0.616 |
| CN(C)CCCOc1ccc(-c2ccc3ncc4c(c3c2)n(C2CCOCC2)c(=O)n4C)cn1 [AZD0156] + O=C(c1cc(Cc2n[nH]c(=O)c3ccccc23)ccc1F)N1CCN(C(=O)C2CC2)CC1 [Olaparib] (first compound max 3 µM, partner max 3 µM) | 0.341 | 0.149 | 0.334 | 0.498 |
| C=CCn1c(=O)c2cnc(Nc3ccc(N4CCN(C)CC4)cc3)nc2n1-c1cccc(C(C)(C)O)n1 [AZD1775] + C1CN(CCC1(C(=O)N[C@@H](CCO)C2=CC=C(C=C2)Cl)N)C3=NC=NC4=C3C=CN4 [Capivasertib] (first compound max 3 µM, partner max 3 µM) | 0.923 | 0.786 | 0.634 | 0.701 |
| C=CCn1c(=O)c2cnc(Nc3ccc(N4CCN(C)CC4)cc3)nc2n1-c1cccc(C(C)(C)O)n1 [AZD1775] + C[C@@H]1COCCN1C2=NC(=NC(=C2)C3(CC3)[S@](=N)(=O)C)C4=C5C=CNC5=NC=C4 [AZD6738] (first compound max 1 µM, partner max 10 µM) | 0.904 | 0.329 | 0.488 | 0.689 |
| C=CCn1c(=O)c2cnc(Nc3ccc(N4CCN(C)CC4)cc3)nc2n1-c1cccc(C(C)(C)O)n1 [AZD1775] + O=C(c1cc(Cc2n[nH]c(=O)c3ccccc23)ccc1F)N1CCN(C(=O)C2CC2)CC1 [Olaparib] (first compound max 1 µM, partner max 10 µM) | 0.891 | 0.316 | 0.436 | 0.604 |
| CCN(CCO)CCCOc1ccc2c(Nc3cc(CC(=O)Nc4cccc(F)c4)[nH]n3)ncnc2c1 [AZD2811] + C=CCn1c(=O)c2cnc(Nc3ccc(N4CCN(C)CC4)cc3)nc2n1-c1cccc(C(C)(C)O)n1 [AZD1775] (first compound max 1 µM, partner max 1 µM) | 0.875 | 0.301 | 0.416 | 0.458 |
| CCN(CCO)CCCOc1ccc2c(Nc3cc(CC(=O)Nc4cccc(F)c4)[nH]n3)ncnc2c1 [AZD2811] + C[C@@H]1COCCN1C2=NC(=NC(=C2)C3(CC3)[S@](=N)(=O)C)C4=C5C=CNC5=NC=C4 [AZD6738] (first compound max 1 µM, 7x7, partner max 10 µM) | 0.858 | 0.117 | 0.473 | 0.513 |
| CCN(CCO)CCCOc1ccc2c(Nc3cc(CC(=O)Nc4cccc(F)c4)[nH]n3)ncnc2c1 [AZD2811] + O=C(c1cc(Cc2n[nH]c(=O)c3ccccc23)ccc1F)N1CCN(C(=O)C2CC2)CC1 [Olaparib] (first compound max 1 µM, 7x7, partner max 10 µM) | 0.167 | 0.164 | 0.229 | 0.191 |
| CN(CCO)CC[C@H](CSc1ccccc1)Nc1ccc(S(=O)(=O)NC(=O)c2ccc(N3CCC([C@@H](O)c4ccccc4-c4ccc(Cl)cc4)CC3)cc2)cc1S(=O)(=O)C(F)(F)F [AZD4320] + C=CCn1c(=O)c2cnc(Nc3ccc(N4CCN(C)CC4)cc3)nc2n1-c1cccc(C(C)(C)O)n1 [AZD1775] (first compound max 1 µM, partner max 1 µM) | 0.977 | 0.564 | 0.542 | 0.927 |
| Cc1c2c(nn1C)CSCc1cc(n(C)n1)CSc1cc(c3ccccc3c1)OCCCc1c(C(=O)O)n(C)c3c-2c(Cl)ccc13 [AZD5991] + Nc1ccn([C@@H]2O[C@H](CO)[C@@H](O)C2(F)F)c(=O)n1 [Gemcitabine] (first compound max 1 µM, 7x7, partner max 0.3 µM) |  |  | 0.19 | 0.902 |
| C[C@@H]1COCCN1c1cc(C2([S@](C)(=N)=O)CC2)nc(-c2ccnc3[nH]ccc23)n1 [AZD6738] + C1CC(C1)(C(=O)[O-])C(=O)[O-].N.N.[Pt+2] [Carboplatin] (first compound max 10 µM, 7x7, partner max 10 µM) |  |  | 0.497 | 0.547 |
| C[C@@H]1COCCN1c1cc(C2([S@](C)(=N)=O)CC2)nc(-c2ccnc3[nH]ccc23)n1 [AZD6738] + Nc1ccn([C@@H]2O[C@H](CO)[C@@H](O)C2(F)F)c(=O)n1 [Gemcitabine] (first compound max 10 µM, 7x7, partner max 0.3 µM) |  |  | 0.415 | 0.939 |
| C[C@@H](Nc1cc(F)cc(F)c1)c1cc(C(=O)N(C)C)cc2c(=O)cc(N3CCOCC3)oc12 [AZD8186] + C1CN(CCC1(C(=O)N[C@@H](CCO)C2=CC=C(C=C2)Cl)N)C3=NC=NC4=C3C=CN4 [AZD5363] (first compound max 10 µM, 7x7, partner max 10 µM) |  |  | 0.303 | 0.636 |
| C[C@@H](Nc1cc(F)cc(F)c1)c1cc(C(=O)N(C)C)cc2c(=O)cc(N3CCOCC3)oc12 [AZD8186] + CC(=O)c1c(C)c2cnc(Nc3ccc(N4CCNCC4)cn3)nc2n(C2CCCC2)c1=O [Palbociclib] (first compound max 10 µM, 7x7, partner max 10 µM) |  |  | 0.434 | 0.578 |
| C[C@@H](Oc1cc(-c2cnn(C3CCNCC3)c2)cnc1N)c1c(Cl)ccc(F)c1Cl [Crizotinib] + CC1=C(C(=CC=C1)Cl)NC(=O)C2=CN=C(S2)NC3=CC(=NC(=N3)C)N4CCN(CC4)CCO [Dasatinib] (first compound max 10 µM, 7x7, partner max 2 µM) |  |  | 0.479 | 0.811 |
| C[C@@H](Oc1cc(-c2cnn(C3CCNCC3)c2)cnc1N)c1c(Cl)ccc(F)c1Cl [Crizotinib] + Cn1cnc2c(F)c(Nc3ccc(Br)cc3Cl)c(C(=O)NOCCO)cc21 [Selumetinib] (first compound max 10 µM, 7x7, partner max 10 µM) |  |  | 0.34 | 0.871 |
| CS(=O)(=O)CCNCc1ccc(-c2ccc3ncnc(Nc4ccc(OCc5cccc(F)c5)c(Cl)c4)c3c2)o1 [Lapatinib] + Cn1cnc2c(F)c(Nc3ccc(Br)cc3Cl)c(C(=O)NOCCO)cc21 [Selumetinib] (first compound max 10 µM, 7x7, partner max 10 µM) |  |  | 0.377 | 0.73 |
| CS(=O)(=O)CCNCc1ccc(-c2ccc3ncnc(Nc4ccc(OCc5cccc(F)c5)c(Cl)c4)c3c2)o1 [Lapatinib] + NC1(c2ccc(-c3nc4ccn5c(=O)[nH]nc5c4cc3-c3ccccc3)cc2)CCC1 [MK-2206] (first compound max 10 µM, 7x7, partner max 10 µM) |  | 0.31 | 0.335 | 0.68 |
| O=C(c1cc(Cc2n[nH]c(=O)c3ccccc23)ccc1F)N1CCN(C(=O)C2CC2)CC1 [Olaparib] + CC1(C)CCC(CN2CCN(c3ccc(C(=O)NS(=O)(=O)c4ccc(NCC5CCOCC5)c([N+](=O)[O-])c4)c(Oc4cnc5[nH]ccc5c4)c3)CC2)=C(c2ccc(Cl)cc2)C1 [Venetoclax] (first compound max 10 µM, 7x7, partner max 1 µM) |  |  | 0.2 | 0.0726 |
| O=C(c1cc(Cc2n[nH]c(=O)c3ccccc23)ccc1F)N1CCN(C(=O)C2CC2)CC1 [Olaparib] + CN(CC[C@H](CSC1=CC=CC=C1)NC2=C(C=C(C=C2)S(=O)(=O)NC(=O)C3=CC=C(C=C3)N4CCC(CC4)[C@H](C5=CC=CC=C5C6=CC=C(C=C6)Cl)O)S(=O)(=O)C(F)(F)F)CCO [AZD4320] (first compound max 10 µM, 7x7, partner max 1 µM) |  |  | 0.48 | 0.595 |
| O=C(c1cc(Cc2n[nH]c(=O)c3ccccc23)ccc1F)N1CCN(C(=O)C2CC2)CC1 [Olaparib] + COc1nnc2ccc(N3CCC(c4ccc(OCCN5CCN(C)C(=O)[C@H]5C)cc4)CC3)nn12 [AZD5153] (first compound max 10 µM, 7x7, partner max 1 µM) |  |  | 0.332 | 0.459 |
| O=C(c1cc(Cc2n[nH]c(=O)c3ccccc23)ccc1F)N1CCN(C(=O)C2CC2)CC1 [Olaparib] + Cc1c2c(nn1C)CSCc1cc(n(C)n1)CSc1cc(c3ccccc3c1)OCCCc1c(C(=O)O)n(C)c3c-2c(Cl)ccc13 [AZD5991] (first compound max 10 µM, 7x7, partner max 1 µM) |  |  | 0.216 | 0.124 |
| Cc1nc(-c2cn3c(n2)-c2ccc(-c4cnn(C(C)(C)C(N)=O)c4)cc2OCC3)n(C(C)C)n1 [Taselisib] + O=C(Nc1ccc2[nH]nc(-c3ccncc3)c2c1)[C@@H]1CCN(CC(=O)N2CCN(c3ccc(-c4ncccn4)cc3)CC2)C1 [SCH772984] (first compound max 10 µM, 7x7, partner max 5 µM) |  |  | 0.516 | 0.886 |
| CC1(C)CCC(CN2CCN(c3ccc(C(=O)NS(=O)(=O)c4ccc(NCC5CCOCC5)c([N+](=O)[O-])c4)c(Oc4cnc5[nH]ccc5c4)c3)CC2)=C(c2ccc(Cl)cc2)C1 [Venetoclax] + CS(=O)(=O)CCNCc1ccc(-c2ccc3ncnc(Nc4ccc(OCc5cccc(F)c5)c(Cl)c4)c3c2)o1 [Lapatinib] (first compound max 1 µM, 7x7, partner max 10 µM) |  |  | 0.183 | 0.262 |
